What was measured:
[1] = molecular target: recombinant GAC (human GAC, residues 72-603); experiment: GAC enzyme assay (biochemical assay, glutamate dehydrogenase-coupled, absorbance at 340 nm); conditions: relative to prior art compound BPTES
Method: (§1) Cell culture media and serum were obtained from Invitrogen (Carlsbad, Calif.). All other reagents were obtained from Fisher Scientific (Pittsburgh, Pa.) or Sigma Aldrich (St. Louis, Mo.). MDA-MB-231 cells were purchased from ATCC (Manassas, Va.), and were cultured at 35° C., in 5% CO2, using RPMI-1640 media supplemented with 10% FBS, unless otherwise specified. Recombinant GAC was expressed in E. coli and purified. Briefly, human GAC (residues 72-603) was cloned into the pET28a vector from Novagen, and was expressed as a His6-tagged fusion protein in E. coli. It was then purified by ion exchange and size exclusion chromatography.
Biochemical assays: The GAC inhibitors were solvated in DMSO. Assay vessels were charged with 1 μL of inhibitor in order to effect the reported final concentration. To each vessel was added 95 μL of an aqueous solution containing 48 mM Tris-acetate (pH 8.6), 21 mM glutamine, and 50 nM recombinant GAC. Fifteen μL of either water or 1 M potassium phosphate, pH 8.2, were added to the mixture to begin the reaction. […] The absorbance of both the second and third reactions was recorded at […]. The third reaction was treated as a baseline, and its absorbance was subtracted from that of the second reaction prior to further data analysis. […] Dose curves and IC50 values were determined in Sigmaplot, using the built-in four parameter logistic function.

MDA-MB 231 cancer cells = experiment: MDA-MB-231 cell proliferation assay (cell counting on 6th day); type: cell-based; conditions: relative to prior art compound BPTES
Method: as §1
Cell assays: MDA-MB-231 cells were cultured in RPMI-1640 media supplemented with 10% FBS. Prior to initiating the assay, cells that were 70-80% confluent were trypsinized. These cells were diluted, counted, and dispensed into 12-well culture plates at a density of 2×10^4 cells per well. Each well was then brought to 1 mL of media, total. The cells were allowed to adhere to the wells overnight, at which point they were recounted (day 0 of the assay). […] Cells were counted on the 6th day of culture. […] Cells were then counted on a hemocytometer, with 3 readings taken and averaged per sample. […] Dose curves and IC50 values were determined in Sigmaplot, using the built-in four parameter logistic function.

IC50 in the GAC enzyme assay compared directly to BPTES [1]: one order of magnitude better
SMILES: O=C(Cc1ccccc1)Nc1nnc(OC2CCN(c3nnc(NC(=O)Cc4ccccc4)s3)CC2)s1 [UPGL00019, 2-Phenyl-N-{5-[1-(5-phenylacetylamino-[1,3,4]thiadiazol-2-yl)-piperidin-4-yloxy]-[1,3,4]thiadiazol-2-yl}-acetamide]
IC50 in inhibiting the proliferation of MDA-MB 231 cancer cells in vitro compared to BPTES (MDA-MB 231 cancer cells): better than BPTES by 2 orders of magnitude
